Measured values from patent publication US20090137572A1, “2-substituted-4-heteroaryl-pyrimidines useful for the treatment of proliferative disorders” (priority 2004, published 2009).

Tests used:
Format in all cases: biochemical
[1] = target: T1, Flt3 (FMS-like tyrosine kinase-3) (Homo sapiens, UniProt P36888); assay: Kinase assay (radioactive phosphate incorporation), Flt3; conditions: pIC50 is -log(IC50, M), read-out: Kinase Inhibition pIC50 Flt3 (converted)
T1 sequence (P36888 27-993): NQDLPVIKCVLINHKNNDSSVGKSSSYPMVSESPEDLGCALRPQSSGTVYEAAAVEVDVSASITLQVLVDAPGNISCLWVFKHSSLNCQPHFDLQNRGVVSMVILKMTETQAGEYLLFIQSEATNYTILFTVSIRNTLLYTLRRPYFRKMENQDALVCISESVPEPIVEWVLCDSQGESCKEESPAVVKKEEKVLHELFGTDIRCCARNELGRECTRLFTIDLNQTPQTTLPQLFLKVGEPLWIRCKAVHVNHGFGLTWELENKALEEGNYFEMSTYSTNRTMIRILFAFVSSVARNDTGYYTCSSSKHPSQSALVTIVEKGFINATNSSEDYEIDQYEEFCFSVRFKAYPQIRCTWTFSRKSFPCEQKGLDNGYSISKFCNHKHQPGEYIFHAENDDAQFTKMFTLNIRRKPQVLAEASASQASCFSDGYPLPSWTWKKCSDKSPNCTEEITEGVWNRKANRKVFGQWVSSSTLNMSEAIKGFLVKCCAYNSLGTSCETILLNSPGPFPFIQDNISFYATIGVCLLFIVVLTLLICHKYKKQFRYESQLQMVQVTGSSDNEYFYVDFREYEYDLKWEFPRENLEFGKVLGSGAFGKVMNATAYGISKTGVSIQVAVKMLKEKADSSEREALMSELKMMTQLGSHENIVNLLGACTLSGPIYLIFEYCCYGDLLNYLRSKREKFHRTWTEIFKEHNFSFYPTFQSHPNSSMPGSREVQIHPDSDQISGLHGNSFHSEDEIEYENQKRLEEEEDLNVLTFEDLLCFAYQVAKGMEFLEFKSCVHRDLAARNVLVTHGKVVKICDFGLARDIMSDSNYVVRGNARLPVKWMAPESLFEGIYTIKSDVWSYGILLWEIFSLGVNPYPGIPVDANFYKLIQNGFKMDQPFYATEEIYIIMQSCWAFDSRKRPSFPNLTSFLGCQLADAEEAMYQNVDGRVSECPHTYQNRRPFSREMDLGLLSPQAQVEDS
Outline: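 Recombinant active enzyme (2-4 μg) with suitable polypeptide substrate in 25 mM β-glycerophosphate, 20 mM MOPS, 5 mM EGTA, 1 mM DTT, 1 mM […], pH 7.4. Started with 15 mM MgCl2/100 μM ATP plus [γ-32P]-ATP, incubated at 30° C; 32P incorporation captured on filter plates and counted by scintillation.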

CDK7/cyclin H = CDK7/cyclin H (Homo sapiens, UniProt P50613); assay: CDK 7 assay (CTD peptide substrate); conditions: read-out: Kinase Inhibition pIC50 CDK7-cyclin H (converted)
Outline: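 Recombinant human kinase/cyclin complex (0.5-2 μg) with biotinylated CTD heptapeptide-repeat substrate and test compound, 45 min at 30° C in MOPS pH 7.2 buffer with 15 mM MgCl2 and 100 μM ATP traced with [γ-32P]ATP. Avidin added, P81 filter capture, phosphoric acid washes, scintillation counting of 32P incorporation.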

Aurora A kinase = target: T2, Aurora A kinase (Homo sapiens, UniProt O14965); assay: Aurora-A (human) kinase assay (Kemptide substrate); conditions: pIC50 is -log(IC50, M); 15 μM ATP; read-out: Kinase Inhibition pIC50 Aurora A kinase (converted)
T2 construct: purchased
T2 sequence (O14965 1-403): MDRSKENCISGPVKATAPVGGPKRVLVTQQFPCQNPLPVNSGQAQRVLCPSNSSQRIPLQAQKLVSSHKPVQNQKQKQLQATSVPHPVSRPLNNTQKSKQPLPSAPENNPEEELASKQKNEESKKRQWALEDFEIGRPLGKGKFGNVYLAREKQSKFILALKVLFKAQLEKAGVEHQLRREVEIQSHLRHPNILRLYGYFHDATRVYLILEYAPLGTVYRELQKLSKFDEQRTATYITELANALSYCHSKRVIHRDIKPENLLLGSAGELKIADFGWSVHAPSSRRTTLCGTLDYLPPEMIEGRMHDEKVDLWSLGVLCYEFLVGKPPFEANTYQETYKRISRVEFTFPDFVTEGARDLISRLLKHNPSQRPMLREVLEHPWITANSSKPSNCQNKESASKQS
Outline: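 Radiometric filter-binding assay: commercial aurora-A kinase (5-10 ng) with 200 μM Kemptide in MOPS/EDTA pH 7.0, started with 10 mM Mg acetate and 15 μM ATP plus [γ-33P]-ATP. Incubated 40 min at room temperature, stopped with phosphoric acid, incorporated 33P counted by scintillation.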

Sequence of CDK7/cyclin H (P50613 whole entry): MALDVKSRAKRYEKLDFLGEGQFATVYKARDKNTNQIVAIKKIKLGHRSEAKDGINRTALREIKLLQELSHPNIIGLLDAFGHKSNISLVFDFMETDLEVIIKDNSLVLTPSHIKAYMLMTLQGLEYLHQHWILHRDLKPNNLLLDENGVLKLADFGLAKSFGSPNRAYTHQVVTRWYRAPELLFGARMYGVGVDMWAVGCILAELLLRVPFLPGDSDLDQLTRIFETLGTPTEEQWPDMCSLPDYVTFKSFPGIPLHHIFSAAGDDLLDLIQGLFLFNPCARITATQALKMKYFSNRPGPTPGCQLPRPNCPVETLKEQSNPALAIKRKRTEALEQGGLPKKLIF
Sequence of CDK7/cyclin H (P51946 whole entry partner): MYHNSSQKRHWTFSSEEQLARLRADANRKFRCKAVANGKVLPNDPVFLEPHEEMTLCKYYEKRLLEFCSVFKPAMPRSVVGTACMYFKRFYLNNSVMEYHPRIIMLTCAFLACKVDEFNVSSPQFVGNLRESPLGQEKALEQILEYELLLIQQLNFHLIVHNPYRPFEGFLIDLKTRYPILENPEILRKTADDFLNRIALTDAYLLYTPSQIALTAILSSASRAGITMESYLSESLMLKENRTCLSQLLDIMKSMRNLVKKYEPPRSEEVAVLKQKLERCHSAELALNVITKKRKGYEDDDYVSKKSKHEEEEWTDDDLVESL

SMILES | IC50 [1] [µM] | IC50 (CDK7/cyclin H) [µM] | IC50 (Aurora A kinase) [µM]
CNc1nc(C)c(-c2ccnc(Nc3cccc(S(N)(=O)=O)c3)n2)s1 [Compound 19, 3-[4-(4-Methyl-2-methylamino-thiazol-5-yl)-pyrimidin-2-ylamino]-benzenesulfonamide] | 0.0316 | 0.0501 | 0.0398
CNc1nc(C)c(-c2ccnc(Nc3cccc(S(C)(=O)=O)c3)n2)s1 [Compound 27, (3-Methanesulfonyl-phenyl)-[4-(4-methyl-2-methylamino-thiazol-5-yl)-pyrimidin-2-yl]-amine] | 0.0631 | 0.2 | 0.316
CNc1nc(C)c(-c2ccnc(Nc3ccc(C)c(S(=O)(=O)N4CCOCC4)c3)n2)s1 [Compound 37, [4-(4-Methyl-2-methylamino-thiazol-5-yl)-pyrimidin-2-yl]-[4-methyl-3-(morpholine-4-sulfonyl)-phenyl]-amine] | 0.158 | 3.98 | 1
CCNc1nc(C)c(-c2ccnc(Nc3ccc(N4CCNCC4)cc3)n2)s1 [Compound 59, [4-(2-Ethylamino-4-methyl-thiazol-5-yl)-pyrimidin-2-yl]-(4-piperazin-1-yl-phenyl)-amine] | 0.0158 | 0.126 | 0.0794
Cc1nc(CS(=O)(=O)c2cccs2)sc1-c1ccnc(Nc2ccc(N3CCOCC3)cc2)n1 [Compound 138, {4-[4-Methyl-2-(thiophene-2-sulfonylmethyl)-thiazol-5-yl]-pyrimidin-2-yl}-(4-morpholin-4-yl-phenyl)-amine] |  | 3.16 | 0.0501

Continued, values first:

IC50 [1] [µM] | IC50 (CDK7/cyclin H) [µM] | IC50 (Aurora A kinase) [µM] | SMILES
0.2 | 0.631 | 0.501 | Cc1ccc(Nc2nccc(-c3sc(N)nc3C)n2)cc1S(=O)(=O)N1CCOCC1 [Compound 38, [4-(2-Amino-4-methyl-thiazol-5-yl)-pyrimidin-2-yl]-[4-methyl-3-(morpholine-4-sulfonyl)-phenyl]-amine]
0.2 | 0.631 | 0.158 | COCCNS(=O)(=O)c1cccc(Nc2nccc(-c3sc(N)nc3C)n2)c1 [Compound 55, 3-[4-(2-Amino-4-methyl-thiazol-5-yl)-pyrimidin-2-ylamino]-N-(2-methoxy-ethyl)-benzenesulfonamide]
